In US20260053171A1, “METHANOGEN INHIBITORS” (AGRIZERONZ LIMITED PARTNERSHIP, priority 2022, published 2026):

Test system: methane production in rumen fluid
Assay: Rumen in vitro (RIV) assay, methane production from rumen fluid incubations
Type: cell-based, cattle
Conditions: Bos taurus, read-out: RIV % methane reduction +/− SD
Description: The compounds of the present invention were initially screened for activity using an in vitro fully automated incubation system for the measurement of total gas production and gas composition (methane and hydrogen). The system used is described in detail in the paper by Muetzel et al. (2014; Animal Feed Science and Technology 196, 1-11). The system in this specification is referred to as the rumen in vitro system or RIV. The RIV system provides a relatively simple tool for determining the rate and production of methane and also whether the rate and production of methane is inhibited or reduced by a particular compound or feed. Rumen in vitro assays use rumen fluid from donor animals (typically either sheep or cattle) which is typically combined with a buffer and then incubated in sealed fermentation vessels at 39° C. for either 24 or 48 h. These assays systems have been well-characterised and used by the scientific community over the last two decades (Rymer et al. 2005). The system that has been used here to characterise the effects of inhibitors on methane production and gas production, and the formation of H2, was described by Muetzel et al. (2014). Rumen in vitro assay systems reflect what can occur in the rumen in vivo, but only short-term, due to their short incubation times (typically not exceeding 48 h) which is limited by its buffering capacity and the fact that it is a closed system. Stock solutions of inhibitors were re-suspended in dimethylformamide (DMF) at concentrations 1000-fold higher than the highest used for the assays. Any further dilutions were also prepared using DMF. The total amount of inhibitor solution added to the rumen fluid-buffer mixture (60 mL) was 60 μl. Incubations used 60 ml of medium containing 12 ml of filtered rumen fluid and 48 ml of buffer in serum bottles for 24-48 h, essentially as described by Muetzel et al. (2014). Two fistulated cattle were used as donor animals for rumen fluid and treatments were incubated in duplicate bottles. Sets of duplicate incubation vials that contained ryegrass (with rumen fluid-buffer mixture), and ryegrass with 30 μM bromoethanesulfonate (BES) were also incubated as negative and positive controls, respectively. One experiment consists of 2 replicates of an inhibitor at any one concentration run at the same time, and a run can contain up to 32 bottle, including positive (30 µM BES) and negative (no inhibitor added) controls. Compound 1, for example, was tested using the 60 mL rumen in vitro assay system at 50 μM, 10 μM, and 2 μM final concentrations and compared to a positive control with 30 µM BES.

SMILES	inhibition at 2 µM [%]	inhibition at 10 µM [%]	inhibition at 50 µM [%]
CC(C)S(=O)(=O)NC(=O)CCC(=O)N1N=C(c2ccc(Cl)cc2)CC1c1ccc2nccnc2c1 (stereo not drawn) [Compound 58]	6 ± 1.6	80.4 ± 6.3	93.9 ± 4.7
COc1cc(C2CC(c3ccc(Cl)cc3)=NN2C(=O)CCC(=O)O)ccc1F (stereo not drawn) [Compound 48, 4-(3-(4-Chlorophenyl)-5-(4-fluoro-3-methoxyphenyl)-4,5-dihydro-1H-pyrazol-1-yl)-4-oxobutanoic acid]			43.6 ± 4.5
O=C(O)CCC(=O)N1N=C(c2ccc(-c3ccc(OC(F)(F)F)cc3)cc2)CC1c1ccc2nccnc2c1 (stereo not drawn) [Compound 22, 4-Oxo-4-(5-(quinoxalin-6-yl)-3-(4′-(trifluoromethoxy)-[1,1′-biphenyl]-4-yl)-4,5-dihydro-1H-pyrazol-1-yl)butanoic acid]	23.8 ± 1.1	85.1 ± 0.8	94.7 ± 0.8
O=C(O)CCC(=O)N1N=C(c2ccc(-c3ccc(Cl)c(Cl)c3)cc2)CC1c1ccc2nccnc2c1 (stereo not drawn) [Compound 27, 4-(3-(3′,4′-Dichloro-[1,1′-biphenyl]-4-yl)-5-(quinoxalin-6-yl)-4,5-dihydro-1H-pyrazol-1-yl)-4-oxobutanoic acid]		48.3 ± 7.5	92.1 ± 1.1
CC(C)S(=O)(=O)NC(=O)CCC(=O)N1N=C(c2cccc(-c3ccccc3)c2)CC1c1ccc2nccnc2c1 (stereo not drawn) [Compound 119, 4-(3-([1,1′-Biphenyl]-3-yl)-5-(quinoxalin-6-yl)-4,5-dihydro-1H-pyrazol-1-yl)-N-(isopropylsulfonyl)-4-oxobutanamide]	11.9 ± 2.7	81.8 ± 2.7	
O=C(O)CCC(=O)N1N=C2c3ccc(Cl)cc3CCC2C1c1ccc2nccnc2c1 (stereo not drawn) [Compound 73, 4-(7-Chloro-3-(quinoxalin-6-yl)-3,3a,4,5-tetrahydro-2H-benzo[g]indazol-2-yl)-4-oxobutanoic acid]		18.8 ± 1.6	78 ± 1.9
CS(=O)(=O)NC(=O)CCC(=O)N1N=C(c2cccc(-c3ccccc3)c2)CC1c1ccc2nccnc2c1 (stereo not drawn) [Compound 68, 4-(3-([1,1′-Biphenyl]-3-yl)-5-(quinoxalin-6-yl)-4,5-dihydro-1H-pyrazol-1-yl)-N-(methylsulfonyl)-4-oxobutanamide]	20.5 ± 1.4	85.4 ± 0.5	
O=C(O)CCC(=O)N1N=C(c2ccc(Cl)cc2)CC1c1ccc(F)c(F)c1 (stereo not drawn) [Compound 112, 4-(3-(4-Chlorophenyl)-5-(3,4-difluorophenyl)-4,5-dihydro-1H-pyrazol-1-yl)-4-oxobutanoic acid]			21.7 ± 0.9
O=C(O)CCC(=O)N1N=C(c2ccc(-c3ccccc3)cc2)CC1c1ccc2nccnc2c1 (stereo not drawn) [Compound 15, 4-(3-([1,1′-Biphenyl]-4-yl)-5-(quinoxalin-6-yl)-4,5-dihydro-1H-pyrazol-1-yl)-4-oxobutanoic acid]	< 5	60.1 ± 1	87.8 ± 1.6
CS(=O)(=O)NC(=O)CCC(=O)N1N=C(c2ccc(Cl)cc2)CC1c1ccc2nccnc2c1 (stereo not drawn) [Compound 55, 4-(3-(4-Chlorophenyl)-5-(quinoxalin-6-yl)-4,5-dihydro-1-pyrazol-1-yl)-N-(methylsulfonyl)-4-oxobutanamide]	< 5	70 ± 4.5	96.1 ± 0.5
O=C(O)CCC(=O)N1N=C(c2ccc(-c3ccccc3Cl)cc2)CC1c1ccc2nccnc2c1 (stereo not drawn) [Compound 17, 4-(3-(2′-Chloro-[1,1′-biphenyl]-4-yl)-5-(quinoxalin-6-yl)-4,5-dihydro-1H-pyrazol-1-yl)-4-oxobutanoic acid]	< 5	74.2 ± 7.8	90 ± 1.2
O=C(O)CCC(=O)N1N=C(c2ccc(Cl)cc2)CC1c1ccc2nonc2c1 (stereo not drawn) [Compound 35, 4-(5-(Benzo[c][1,2,5]oxadiazol-5-yl)-3-(4-chlorophenyl)-4,5-dihydro-1H-pyrazol-1-yl)-4-oxobutanoic acid]		43.6 ± 6.6	91.3 ± 2.1
O=C(O)CCC(=O)N1N=C(c2ccc(-c3ccccc3)cn2)CC1c1ccc2nccnc2c1 (stereo not drawn) [Compound 29, 4-Oxo-4-(3-(5-phenylpyridin-2-yl)-5-(quinoxalin-6-yl)-4,5-dihydro-1H-pyrazol-1-yl)butanoic acid]			33.3 ± 0.6
CN(C)S(=O)(=O)NC(=O)CCC(=O)N1N=C(c2ccc(OC(F)(F)F)cc2)CC1c1ccc2nccnc2c1 (stereo not drawn) [Compound 126, N—(N,N-Dimethylsulfamoyl)-4-oxo-4-(5-(quinoxalin-6-yl)-3-(4-(trifluoromethoxy)phenyl)-4,5-dihydro-1H-pyrazol-1-yl) butanamide]		25.5 ± 3.8	
CS(=O)(=O)NC(=O)CCC(=O)N1N=C(c2ccc(-c3ccccc3)cc2)CC1c1ccc2nccnc2c1 (stereo not drawn) [Compound 57, 4-(3-([1,1′-Biphenyl]-4-yl)-5-(quinoxalin-6-yl)-4,5-dihydro-1H-pyrazol-1-yl)-N-(methylsulfonyl)-4-oxobutanamide]		62.7 ± 4.4	89.7 ± 0.5
CC(C)(C)Oc1ccc(-c2ccc(C3=NN(C(=O)CCC(=O)O)C(c4ccc5nccnc5c4)C3)cc2)cc1 (stereo not drawn) [Compound 81, 4-(3-(4′-(tert-Butoxy)-[1,1′-biphenyl]-4-yl)-5-(quinoxalin-6-yl)-4,5-dihydro-1H-pyrazol-1-yl)-4-oxobutanoic acid]		29.8 ± 17.8	
CN(C)c1ccc(-c2ccc(C3=NN(C(=O)CCC(=O)O)C(c4ccc5nccnc5c4)C3)cc2)cc1 (stereo not drawn) [Compound 95, 4-(3-(4′-(Dimethylamino)-[1,1′-biphenyl]-4-yl)-5-(quinoxalin-6-yl)-4,5-dihydro-1H-pyrazol-1-yl)-4-oxobutanoic acid]		68.3 ± 2.1	
CCCOc1ccc(-c2ccc(C3=NN(C(=O)CCC(=O)O)C(c4ccc5nccnc5c4)C3)cc2)cc1 (stereo not drawn) [Compound 78, 4-Oxo-4-(3-(4′-propoxy-[1,1′-biphenyl]-4-yl)-5-(quinoxalin-6-yl)-4,5-dihydro-1H-pyrazol-1-yl)butanoic acid]	39.8 ± 18.5	88.8 ± 2	
COc1cccc(C2CC(c3ccc(Cl)cc3)=NN2C(=O)CCC(=O)O)c1 (stereo not drawn) [Compound 41, 4-(3-(4-Chlorophenyl)-5-(3-methoxyphenyl)-4,5-dihydro-1H-pyrazol-1-yl)-4-oxobutanoic acid]			13.4 ± 3.2
O=C(O)CCC(=O)N1N=C(c2ccccc2)CC1c1ccc2nccnc2c1 (stereo not drawn) [Compound 1A, 4-Oxo-4-(3-phenyl-5-(quinoxalin-6-yl)-4,5-dihydro-1H-pyrazol-1-yl)butanoic acid]			< 5
O=C(O)CCC(=O)N1N=C(c2ccc(Br)cc2)CC1c1ccc2nccnc2c1 (stereo not drawn) [Compound 9, 4-(3-(4-Bromophenyl)-5-(quinoxalin-6-yl)-4,5-dihydro-1H-pyrazol-1-yl)-4-oxobutanoic acid]			64.9 ± 1.9
CC(C)COc1ccc(-c2ccc(C3=NN(C(=O)CCC(=O)O)C(c4ccc5nccnc5c4)C3)cc2)cc1 (stereo not drawn) [Compound 82, 4-(3-(4′-Isobutoxy-[1,1′-biphenyl]-4-yl)-5-(quinoxalin-6-yl)-4,5-dihydro-1H-pyrazol-1-yl)-4-oxobutanoic acid]	9.3 ± 7.6	75.7 ± 4.6	
O=C(O)CCC(=O)N1N=C(c2ccccc2-c2ccccc2)CC1c1ccc2nccnc2c1 (stereo not drawn) [Compound 12, 4-(3-([1,1′-Biphenyl]-2-yl)-5-(quinoxalin-6-yl)-4,5-dihydro-1H-pyrazol-1-yl)-4-oxobutanoic acid]		51.6 ± 1.5	95.9 ± 0.9
O=C(O)CCC(=O)N1N=C(c2ccc(-c3ccc(Cl)cc3Cl)cc2)CC1c1ccc2nccnc2c1 (stereo not drawn) [Compound 26, 4-(3-(2′,4′-Dichloro-[1,1′-biphenyl]-4-yl)-5-(quinoxalin-6-yl)-4,5-dihydro-1H-pyrazol-1-yl)-4-oxobutanoic acid]		65.8 ± 3.7	96 ± 1.1
O=C(O)c1cccc(N2N=C(c3cccc(-c4ccccc4)c3)CC2c2ccc3nccnc3c2)c1 (stereo not drawn) [Compound 114, 3-(3-([1,1′-Biphenyl]-3-yl)-5-(quinoxalin-6-yl)-4,5-dihydro-1H-pyrazol-1-yl)benzoic acid]		58.3 ± 16.6	
CC(C)(C)c1ccc(-c2ccc(C3=NN(C(=O)CCC(=O)O)C(c4ccc5nccnc5c4)C3)cc2)cc1 (stereo not drawn) [Compound 87, 4-(3-(4′-(tert-Butyl)-[1,1′-biphenyl]-4-yl)-5-(quinoxalin-6-yl)-4,5-dihydro-1H-pyrazol-1-yl)-4-oxobutanoic acid]		6 ± 0.5	
CC(C)c1ccc(C2=NN(C(=O)CCC(=O)O)C(c3ccc4nccnc4c3)C2)cc1 (stereo not drawn) [Compound 3, 4-(3-(4-Isopropylphenyl)-5-(quinoxalin-6-yl)-4,5-dihydro-1H-pyrazol-1-yl)-4-oxobutanoic acid]		5.5 ± 2.8	78.6 ± 1.1
